Test results reported in patent publication US12065436B2, “Cardiac sarcomere inhibitors” (Cytokinetics, Inc., priority 2018, dated 2024).

Biological target: bovine cardiac myofibrils (full-length cardiac myosin ATPase in the native sarcomere) (Bos taurus (Bovine), UniProt Q9BE39)
Test: Skinned bovine cardiac myofibril ATPase assay (PK/LDH-coupled)
Type: biochemical
Settings: Ca2+ activating to 75% of maximal rate; for CDMF75 IC15: concentration giving 15% inhibition; for IC50: read-out: CDMF75 IC50
Outline: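 Inhibition of steady-state ATPase read at 340 nm through a PK/LDH-coupled NADH system (0.5 mM NADH, 1.5 mM PEP). Detergent-skinned bovine cardiac myofibrils, 1 mg/mL, were tested at pH 6.8 in PIPES/MgCl2 with 50 μM ATP and calcium adjusted to give pCa50 or pCa75 activation.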

bovine cardiac myofibrils (full-length cardiac myosin ATPase in the native sarcomere), sequence (Q9BE39 whole entry): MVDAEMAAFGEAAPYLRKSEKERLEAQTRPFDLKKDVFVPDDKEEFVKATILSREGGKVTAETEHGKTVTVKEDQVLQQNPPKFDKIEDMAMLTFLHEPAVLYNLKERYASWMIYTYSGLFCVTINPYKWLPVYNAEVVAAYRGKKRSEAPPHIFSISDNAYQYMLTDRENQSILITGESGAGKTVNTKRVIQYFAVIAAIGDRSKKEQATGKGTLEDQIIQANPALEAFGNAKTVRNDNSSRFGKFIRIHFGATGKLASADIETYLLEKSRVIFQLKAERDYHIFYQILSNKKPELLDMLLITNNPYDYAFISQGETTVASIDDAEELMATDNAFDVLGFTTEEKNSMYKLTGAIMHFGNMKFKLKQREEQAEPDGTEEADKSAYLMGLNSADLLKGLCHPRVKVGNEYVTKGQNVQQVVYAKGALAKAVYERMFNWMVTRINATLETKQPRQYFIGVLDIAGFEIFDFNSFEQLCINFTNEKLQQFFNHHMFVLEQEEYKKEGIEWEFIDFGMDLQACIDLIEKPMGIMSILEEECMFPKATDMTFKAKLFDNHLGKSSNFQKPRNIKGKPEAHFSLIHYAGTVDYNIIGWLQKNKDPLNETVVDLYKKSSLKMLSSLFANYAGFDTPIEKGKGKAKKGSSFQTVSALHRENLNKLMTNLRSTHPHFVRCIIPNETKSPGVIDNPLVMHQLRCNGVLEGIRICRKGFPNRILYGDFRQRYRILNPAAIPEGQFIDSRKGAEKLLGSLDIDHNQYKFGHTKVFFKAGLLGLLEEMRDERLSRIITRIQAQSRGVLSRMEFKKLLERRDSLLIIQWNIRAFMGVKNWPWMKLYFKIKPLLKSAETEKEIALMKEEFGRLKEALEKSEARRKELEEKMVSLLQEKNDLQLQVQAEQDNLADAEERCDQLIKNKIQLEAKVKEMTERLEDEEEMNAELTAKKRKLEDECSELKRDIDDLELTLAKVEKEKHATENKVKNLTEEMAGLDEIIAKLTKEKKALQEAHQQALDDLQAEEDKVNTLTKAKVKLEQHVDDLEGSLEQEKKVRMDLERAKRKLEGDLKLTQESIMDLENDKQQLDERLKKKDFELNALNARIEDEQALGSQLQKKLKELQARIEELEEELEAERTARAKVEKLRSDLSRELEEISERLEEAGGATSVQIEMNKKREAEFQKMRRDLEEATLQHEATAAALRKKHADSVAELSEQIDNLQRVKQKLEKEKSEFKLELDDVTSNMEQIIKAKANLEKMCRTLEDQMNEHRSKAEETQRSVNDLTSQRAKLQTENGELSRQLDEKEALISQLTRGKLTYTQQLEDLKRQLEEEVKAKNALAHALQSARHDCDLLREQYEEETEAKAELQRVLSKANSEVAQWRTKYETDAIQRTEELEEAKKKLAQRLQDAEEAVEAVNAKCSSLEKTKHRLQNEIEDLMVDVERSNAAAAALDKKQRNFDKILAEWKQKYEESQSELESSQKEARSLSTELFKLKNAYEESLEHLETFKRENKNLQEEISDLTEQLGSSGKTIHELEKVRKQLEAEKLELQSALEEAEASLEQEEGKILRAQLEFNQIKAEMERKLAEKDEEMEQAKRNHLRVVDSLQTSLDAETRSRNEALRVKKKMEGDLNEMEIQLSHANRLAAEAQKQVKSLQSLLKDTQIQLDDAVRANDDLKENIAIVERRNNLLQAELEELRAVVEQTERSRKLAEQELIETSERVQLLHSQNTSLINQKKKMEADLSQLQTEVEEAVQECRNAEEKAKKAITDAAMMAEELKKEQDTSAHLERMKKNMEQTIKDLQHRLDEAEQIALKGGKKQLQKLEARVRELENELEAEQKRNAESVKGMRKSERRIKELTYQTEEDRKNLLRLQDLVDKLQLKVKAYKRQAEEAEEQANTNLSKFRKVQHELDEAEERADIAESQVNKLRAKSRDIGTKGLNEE
bovine cardiac myofibrils (full-length cardiac myosin ATPase in the native sarcomere), sequence (P85100 whole entry partner): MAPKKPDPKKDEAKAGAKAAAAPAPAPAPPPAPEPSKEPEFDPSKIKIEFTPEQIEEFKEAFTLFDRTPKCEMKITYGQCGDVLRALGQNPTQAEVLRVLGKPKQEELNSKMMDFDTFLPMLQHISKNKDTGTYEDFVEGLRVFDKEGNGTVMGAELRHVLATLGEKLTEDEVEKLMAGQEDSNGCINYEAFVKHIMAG
bovine cardiac myofibrils (full-length cardiac myosin ATPase in the native sarcomere), sequence (Q3SZE5 whole entry partner): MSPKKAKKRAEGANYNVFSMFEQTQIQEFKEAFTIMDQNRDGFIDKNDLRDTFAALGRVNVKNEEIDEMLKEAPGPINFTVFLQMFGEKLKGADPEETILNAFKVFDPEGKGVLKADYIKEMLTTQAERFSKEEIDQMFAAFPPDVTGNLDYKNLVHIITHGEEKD

For `CCc1nc(-c2ccc3c(c2)CC[C@H]3NC(=O)c2cn(C)nn2)no1` [Compound 616, (R)-N-(5-(5-ethyl-1,2,4-oxadiazol-3-yl)-2,3-dihydro-1H-inden-1-yl)-1-methyl-1H-1,2,3-triazole-4-carboxamide], the “CDMF75 IC15” value was 4.5 µM and the IC50 was 22.9 µM.
In the case of `CCc1nc(-c2ccc3c(c2)OC[C@H]3NC(=O)N2CC[C@H](O)C2)no1` [Compound 739, (S)-N-((S)-6-(5-ethyl-1,2,4-oxadiazol-3-yl)-2,3-dihydrobenzofuran-3-yl)-3-hydroxypyrrolidine-1-carboxamide], the “CDMF75 IC15” value is reported as 5.4 µM and the IC50 is reported as 24.2 µM.
With `CCc1nc(-c2ccc3c(c2)CC[C@H]3NC(=O)c2coc(CS(C)(=O)=O)n2)no1` [Compound 468, (R)-N-(5-(5-ethyl-1,2,4-oxadiazol-3-yl)-2,3-dihydro-1H-inden-1-yl)-2-((methylsulfonyl)methyl)oxazole-4-carboxamide] the “CDMF75 IC15” value was 6.6 µM and the IC50 was 39.2 µM.
`[2H]C([2H])([2H])C(=O)N[C@@H]1COc2cc(-c3noc(C(F)F)n3)ccc21` [Compound 447, (S)-N-(6-(5-(difluoromethyl)-1,2,4-oxadiazol-3-yl)-2,3-dihydrobenzofuran-3-yl)acetamide-2,2,2-d3] was tested, and the “CDMF75 IC15” value was 1.8 µM and the IC50 was 9.3 µM.
With `CCc1cc(-c2ccc3c(c2)CC[C@H]3NC(=O)c2cn[nH]c2C)no1` [Compound 431, (R)—N-(5-(5-ethylisoxazol-3-yl)-2,3-dihydro-1H-inden-1-yl)-5-methyl-1H-pyrazole-4-carboxamide] the “CDMF75 IC15” value was 0.3 µM and the IC50 was 0.9 µM.
With `CCc1nc(-c2ccc3c(c2)CC[C@H]3NC(=O)c2ocnc2C(F)(F)F)no1` [Compound 639, (R)-N-(5-(5-ethyl-1,2,4-oxadiazol-3-yl)-2,3-dihydro-1H-inden-1-yl)-4-(trifluoromethyl)oxazole-5-carboxamide] the “CDMF75 IC15” value was 0.3 µM and the IC50 was 1.1 µM.
With `CCc1nc(-c2ccc3c(c2)CC[C@H]3NC(=O)c2cnn(C)c2C)no1` [Compound 570, (R)-N-(5-(5-ethyl-1,2,4-oxadiazol-3-yl)-2,3-dihydro-1H-inden-1-yl)-1,5-dimethyl-1H-pyrazole-4-carboxamide] the “CDMF75 IC15” value was 0.4 µM and the IC50 was 1.4 µM.
`Cc1ccnc(C(=O)NC2CCc3cc(-c4noc(C)n4)ccc32)c1` (stereo not shown) [Compound 68, 4-methyl-N-(5-(5-methyl-1,2,4-oxadiazol-3-yl)-2,3-dihydro-1H-inden-1-yl)picolinamide] was tested, and the “CDMF75 IC15” value was 1.6 µM and the IC50 was 6.1 µM.
With `COC(=O)N[C@@H]1CCc2cc(-c3noc(C(F)F)n3)ccc21` [Compound 282, methyl (R)-(5-(5-(difluoromethyl)-1,2,4-oxadiazol-3-yl)-2,3-dihydro-1H-inden-1-yl)carbamate] the “CDMF75 IC15” value was 0.5 µM and the IC50 was 1.9 µM.
With `Cn1nnc(C(=O)N[C@@H]2COc3cc(-c4noc(C(F)F)n4)ccc32)n1` [Compound 198, (S)-N-(6-(5-(difluoromethyl)-1,2,4-oxadiazol-3-yl)-2,3-dihydrobenzofuran-3-yl)-2-methyl-2H-tetrazole-5-carboxamide] the “CDMF75 IC15” value was 2.0 µM and the IC50 was 7.2 µM.
`O=C(NC1CCc2cc(-c3noc(C(F)F)n3)ccc21)c1ocnc1C1CC1` (stereo not shown) [Compound 21, 4-cyclopropyl-N-(5-(5-(difluoromethyl)-1,2,4-oxadiazol-3-yl)-2,3-dihydro-1H-inden-1-yl)oxazole-5-carboxamide] was tested, and the “CDMF75 IC15” value was 0.7 µM and the IC50 was 2.9 µM.
For `COCc1nc(-c2ccc3c(c2)OC[C@H]3NC(=O)c2cc(C)nn2C)no1` [Compound 227, (S)-N-(6-(5-(methoxymethyl)-1,2,4-oxadiazol-3-yl)-2,3-dihydrobenzofuran-3-yl)-1,3-dimethyl-1H-pyrazole-5-carboxamide], the “CDMF75 IC15” value was 0.7 µM and the IC50 was 2.2 µM.
With `CCc1nc(-c2ccc3c(c2)CC[C@H]3NC(=O)c2cnn(C3COC3)c2)no1` [Compound 470, (R)-N-(5-(5-ethyl-1,2,4-oxadiazol-3-yl)-2,3-dihydro-1H-inden-1-yl)-1-(oxetan-3-yl)-1H-pyrazole-4-carboxamide] the “CDMF75 IC15” value was 4.4 µM and the IC50 was 16.8 µM.
With `COCCn1cc(C(=O)N[C@@H]2CCc3cc(-c4noc(C(C)C)n4)ccc32)cn1` [Compound 511, (R)-N-(5-(5-isopropyl-1,2,4-oxadiazol-3-yl)-2,3-dihydro-1H-inden-1-yl)-1-(2-methoxyethyl)-1H-pyrazole-4-carboxamide] the “CDMF75 IC15” value was 3.0 µM and the IC50 was 14 µM.
With `Cc1nc(-c2ccc3c(c2)CCC3NC(=O)Nc2cccnn2)no1` (stereo not shown) [Compound 97, 1-(5-(5-methyl-1,2,4-oxadiazol-3-yl)-2,3-dihydro-1H-inden-1-yl)-3-(pyridazin-3-yl)urea] the “CDMF75 IC15” value was 2.0 µM and the IC50 was 7.8 µM.
With `COCc1nc(-c2ccc3c(c2)CCC3NC(=O)c2cn(C)nc2C)no1` (stereo not shown) [Compound 76, N-(5-(5-(methoxymethyl)-1,2,4-oxadiazol-3-yl)-2,3-dihydro-1H-inden-1-yl)-1,3-dimethyl-1H-pyrazole-4-carboxamide] the “CDMF75 IC15” value was 1.7 µM and the IC50 was 6.1 µM.
With `Cc1ccc(-c2ccc3c(c2)CC[C@H]3NC(=O)c2ccnn2C)cn1` [Compound 375, (R)-1-methyl-N-(5-(6-methylpyridin-3-yl)-2,3-dihydro-1H-inden-1-yl)-1H-pyrazole-5-carboxamide] the “CDMF75 IC15” value was 10.6 µM and the IC50 was > 39.2 µM.
With `Cc1cc(C(=O)N[C@@H]2COc3cc(-c4noc(C)n4)cnc32)ccn1` [Compound 188, (S)-2-methyl-N-(6-(5-methyl-1,2,4-oxadiazol-3-yl)-2,3-dihydrofuro[3,2-b]pyridin-3-yl)isonicotinamide] the “CDMF75 IC15” value was 5.3 µM and the IC50 was 23.6 µM.
With `O=C(N[C@@H]1CCc2cc(-c3noc(C(F)F)n3)ccc21)c1ocnc1C(F)(F)F` [Compound 682, (R)-N-(5-(5-(difluoromethyl)-1,2,4-oxadiazol-3-yl)-2,3-dihydro-1H-inden-1-yl)-4-(trifluoromethyl)oxazole-5-carboxamide] the “CDMF75 IC15” value was 0.4 µM and the IC50 was 1.6 µM.
`Cc1nc(-c2ccc3c(c2)CC[C@H]3NC(=O)C(F)F)no1` [Compound 435, (R)-2,2-difluoro-N-(5-(5-methyl-1,2,4-oxadiazol-3-yl)-2,3-dihydro-1H-inden-1-yl)acetamide] was tested, and the “CDMF75 IC15” value was 2.6 µM and the IC50 was 11.3 µM.
In the case of `CCc1nc(-c2ccc3c(c2)CC[C@H]3NC(=O)c2cnn(C3CN(C(N)=O)C3)c2)no1` [Compound 481, (R)-1-(1-carbamoylazetidin-3-yl)-N-(5-(5-ethyl-1,2,4-oxadiazol-3-yl)-2,3-dihydro-1H-inden-1-yl)-1H-pyrazole-4-carboxamide], the “CDMF75 IC15” value is reported as 1.9 µM and the IC50 is reported as 7.8 µM.
With `Cc1nc(-c2ccc3c(c2)CCC3NC(=O)c2cn(C)nc2C)no1` (stereo not shown) [Compound 55, 1,3-dimethyl-N-(5-(5-methyl-1,2,4-oxadiazol-3-yl)-2,3-dihydro-1H-inden-1-yl)-1H-pyrazole-4-carboxamide] the “CDMF75 IC15” value was 2.0 µM and the IC50 was 6.8 µM.
`CCc1nc(-c2ccc3c(c2)CC[C@H]3NC(=O)c2nnn(C)c2C)no1` [Compound 621, (R)-N-(5-(5-ethyl-1,2,4-oxadiazol-3-yl)-2,3-dihydro-1H-inden-1-yl)-1,5-dimethyl-1H-1,2,3-triazole-4-carboxamide] was tested, and the “CDMF75 IC15” value was 1.6 µM and the IC50 was 6.1 µM.
